Ratio Ki data for one molecule are collected here from ChEMBL document CHEMBL1921788, “Development of melanoma-targeted polymer micelles by conjugation of a melanocortin 1 receptor (MC1R) specific ligand” (J Med Chem, 2011).

Non-standard residues stand in square brackets, D forms with d. Residues, ends and D or L forms follow the SMILES beside them. d2Nal = N[C@H](Cc1ccc2ccccc2c1)C(=O)O; Nle = CCCC[C@H](N)C(=O)O

The assay has as its system HEK293. Nature of the assay: Selectivity ratio of Ki for human MC5 receptor expressed in human HEK293 cells to Ki for human MC1 receptor expressed in human HCT116 cells. Type of assay: cell-based.

In the case of `CCCC[C@H](NC(=O)[C@@H](NC(=O)[C@@H](N)Cc1ccc(O)cc1)C(C)C)C(=O)NCC(=O)N[C@@H](Cc1cnc[nH]1)C(=O)N[C@H](Cc1ccc2ccccc2c1)C(=O)N[C@@H](CCCNC(=N)N)C(=O)N[C@H](Cc1ccccc1)C(=O)N[C@@H](CC(=O)O)C(=O)N[C@@H](CCCNC(=N)N)C(=O)N[C@@H](Cc1ccccc1)C(=O)NCC(N)=O` (H-YV[Nle]GH[d2Nal]R[dF]DRFG-NH2), the Ratio Ki is 0.13.
